Experiments:
[1] = biological target: T1, human recombinant GCS (Homo sapiens, UniProt Q16739); assay: Human GCS inhibition, recombinant enzyme expressed in insect cells; assay type: biochemical
T1 construct: made in house; host or cells: insect cells
T1 sequence (Q16739 1-394): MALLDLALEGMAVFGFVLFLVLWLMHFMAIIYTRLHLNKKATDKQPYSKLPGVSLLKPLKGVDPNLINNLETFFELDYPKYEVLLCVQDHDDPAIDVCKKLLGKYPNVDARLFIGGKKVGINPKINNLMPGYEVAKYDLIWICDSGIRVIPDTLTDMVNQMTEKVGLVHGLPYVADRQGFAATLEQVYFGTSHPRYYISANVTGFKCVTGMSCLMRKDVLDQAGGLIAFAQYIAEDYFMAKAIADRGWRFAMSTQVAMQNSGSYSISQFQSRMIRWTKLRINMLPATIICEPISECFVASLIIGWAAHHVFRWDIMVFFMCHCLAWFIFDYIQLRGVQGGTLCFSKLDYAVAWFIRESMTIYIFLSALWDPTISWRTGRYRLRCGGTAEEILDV

[2] = biological target: Porcine intestinal lactase (Sus scrofa, UniProt F1S0D7); assay: Porcine intestinal lactase inhibition; assay type: biochemical; settings: read-out: Porcine intestinal lactase (Ki μM)
Sequence of Porcine intestinal lactase (F1S0D7 840-1898): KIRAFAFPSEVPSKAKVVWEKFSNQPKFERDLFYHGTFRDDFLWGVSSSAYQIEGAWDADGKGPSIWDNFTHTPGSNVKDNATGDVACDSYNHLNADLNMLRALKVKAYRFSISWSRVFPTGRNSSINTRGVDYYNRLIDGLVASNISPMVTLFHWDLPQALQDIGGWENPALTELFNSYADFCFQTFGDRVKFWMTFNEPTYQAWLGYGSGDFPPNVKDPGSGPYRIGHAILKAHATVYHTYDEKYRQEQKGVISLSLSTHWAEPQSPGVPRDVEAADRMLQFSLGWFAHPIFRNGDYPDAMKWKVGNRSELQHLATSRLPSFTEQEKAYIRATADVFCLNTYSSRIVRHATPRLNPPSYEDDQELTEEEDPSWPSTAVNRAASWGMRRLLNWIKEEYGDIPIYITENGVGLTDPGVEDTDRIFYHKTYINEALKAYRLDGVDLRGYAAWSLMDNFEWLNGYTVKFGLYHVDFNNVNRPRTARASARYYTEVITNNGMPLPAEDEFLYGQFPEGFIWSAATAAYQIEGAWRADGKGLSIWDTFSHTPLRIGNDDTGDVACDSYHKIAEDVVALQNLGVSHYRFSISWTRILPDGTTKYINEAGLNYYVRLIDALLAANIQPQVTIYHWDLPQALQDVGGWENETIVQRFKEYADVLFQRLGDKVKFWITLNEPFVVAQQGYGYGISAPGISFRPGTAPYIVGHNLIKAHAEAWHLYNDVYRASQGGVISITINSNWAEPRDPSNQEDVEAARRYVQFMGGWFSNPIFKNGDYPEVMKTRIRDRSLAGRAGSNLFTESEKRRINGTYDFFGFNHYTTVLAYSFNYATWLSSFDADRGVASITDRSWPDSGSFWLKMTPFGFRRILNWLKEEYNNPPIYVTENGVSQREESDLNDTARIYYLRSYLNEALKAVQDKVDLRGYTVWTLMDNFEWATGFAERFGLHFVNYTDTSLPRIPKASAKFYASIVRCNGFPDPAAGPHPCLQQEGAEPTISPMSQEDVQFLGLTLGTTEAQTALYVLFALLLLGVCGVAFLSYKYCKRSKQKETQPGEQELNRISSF

[3] = system: glycolipid biosynthesis; settings: as disclosed in EP-A-0698012; cited from earlier work
[4] = biological target: T2, Mouse ceramide β-galactosidase (Mus musculus, UniProt P54818); assay: Mouse ceramide β-galactosidase inhibition; assay type: biochemical
T2 sequence (P54818 43-684): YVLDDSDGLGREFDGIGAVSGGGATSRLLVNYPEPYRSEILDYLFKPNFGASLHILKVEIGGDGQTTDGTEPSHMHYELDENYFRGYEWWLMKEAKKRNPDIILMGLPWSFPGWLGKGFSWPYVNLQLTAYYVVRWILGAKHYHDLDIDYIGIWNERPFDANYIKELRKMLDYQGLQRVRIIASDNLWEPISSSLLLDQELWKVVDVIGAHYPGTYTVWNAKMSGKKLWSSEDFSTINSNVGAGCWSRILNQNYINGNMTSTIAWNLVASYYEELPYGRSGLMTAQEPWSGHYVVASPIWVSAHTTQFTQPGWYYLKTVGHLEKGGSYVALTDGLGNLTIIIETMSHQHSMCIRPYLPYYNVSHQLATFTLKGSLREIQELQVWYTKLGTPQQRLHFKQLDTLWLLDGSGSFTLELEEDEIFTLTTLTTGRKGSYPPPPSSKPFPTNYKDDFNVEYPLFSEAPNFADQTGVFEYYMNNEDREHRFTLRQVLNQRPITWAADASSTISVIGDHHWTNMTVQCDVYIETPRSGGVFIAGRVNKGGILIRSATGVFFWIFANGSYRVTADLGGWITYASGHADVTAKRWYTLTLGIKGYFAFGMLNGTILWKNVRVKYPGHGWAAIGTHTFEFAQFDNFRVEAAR

[5] = biological target: Jack bean β-galactosidase; assay: Jack bean β-galactosidase inhibition; assay type: biochemical
[6] = biological target: T3, Human β-galactosidase (Homo sapiens, UniProt P16278); assay: Human β-galactosidase assay; assay type: biochemical
T3 sequence (P16278 29-677): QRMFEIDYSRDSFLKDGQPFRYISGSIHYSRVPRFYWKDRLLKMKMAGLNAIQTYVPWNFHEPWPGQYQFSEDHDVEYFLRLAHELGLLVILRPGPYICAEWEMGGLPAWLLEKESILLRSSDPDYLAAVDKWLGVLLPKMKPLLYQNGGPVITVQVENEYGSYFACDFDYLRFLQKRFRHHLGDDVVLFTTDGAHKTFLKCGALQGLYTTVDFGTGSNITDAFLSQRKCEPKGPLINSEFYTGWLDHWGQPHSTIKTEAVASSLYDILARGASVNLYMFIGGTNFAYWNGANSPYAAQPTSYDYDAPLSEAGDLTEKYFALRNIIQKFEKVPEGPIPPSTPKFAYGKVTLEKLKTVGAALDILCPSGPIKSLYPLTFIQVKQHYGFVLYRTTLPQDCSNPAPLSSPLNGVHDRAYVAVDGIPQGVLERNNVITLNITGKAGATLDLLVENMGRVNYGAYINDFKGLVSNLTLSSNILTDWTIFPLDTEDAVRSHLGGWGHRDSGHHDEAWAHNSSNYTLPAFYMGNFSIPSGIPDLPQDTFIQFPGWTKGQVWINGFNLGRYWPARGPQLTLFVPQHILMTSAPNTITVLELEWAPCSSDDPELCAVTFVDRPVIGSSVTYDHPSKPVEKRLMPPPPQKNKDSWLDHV
Experimental: The glucosidase assays were performed as described (Biochemical Genetics, A Laboratory Manual, Oxford University Press) except that p-nitrophenyl linked substrates were used instead of methylumbelliferone linked substrates.

[7] = biological target: Human α-glucosidase; assay: Human α-glucosidase assay, p-nitrophenyl linked substrates; assay type: biochemical

CCCCCN1CC(O)C(O)C(O)C1CO [Example 3, 3,4,5-Piperidinetriol, 1-pentyl-2-(hydroxymethyl)-, (2S,3R,4R,5S)]
IC50 [1]: 4 µM

CCCCN1CC(O)C(O)C(O)C1CO [Example 5, 3,4,5-Piperidinetriol, 1-butyl-2-hydroxymethyl)-, (2S,3S,4R,5S)]
Ki [2]: 8000 µM

CCCCN1C[C@@H](O)[C@H](O)[C@H](O)[C@@H]1C [NB-DFJ]
inhibition of glycolipid biosynthesis [3]: do not act as inhibitors

CCCCN1C[C@H](O)[C@@H](O)[C@@H](O)[C@H]1CO [NB-DGJ, N-butyldeoxygalactonojirimycin]
IC50 [4]: 370 µM
Ki [2]: 85 µM
IC50 [5]: 3.4 µM
Ki [6]: 40 µM

CCCCN1C[C@@H](O)[C@@H](O)[C@H](O)[C@H]1CO [NB-DMJ]
inhibition of glycolipid biosynthesis [3]: do not act as inhibitors

CCCCN1C[C@H](O)[C@@H](O)[C@H](O)[C@H]1CO [NB-DNJ, N-butyldeoxynojirimycin]
IC50 [7]: < 20 µM

CCCCN1C[C@H](NC(C)=O)[C@@H](O)[C@H](O)[C@H]1CO [NB-NAG]
inhibition of glycolipid biosynthesis [3]: do not act as inhibitors
